According to PMC11212140, “Molecular Bidents with Two Electrophilic Warheads as a New Pharmacological Modality” (ACS Central Science, 2024):

What was measured:
Assay in all cases: KiNativ profiling in H3255 cells
Type in all cases: cell-based, human
[1] = test system: T1, BARK1; details: 2.5 µM; Lys2; DLKPANILLDEHGHVR
T1 construct: purchased ActivX Biosciences (KiNativ)
Outline: (§1)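 Compound ZNL-0056, 2.5 μM, 2 h, in H3255 cells near 80% confluency; DMSO-treated cells served as reference. KiNativ performed externally on liquid-nitrogen-frozen pellets.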

[2] = test system: T2, CDK5; details: 2.5 µM
T2 construct: purchased ActivX Biosciences (KiNativ)
Outline: as §1

[3] = test system: T3, CDK7; details: 2.5 µM
T3 construct: purchased ActivX Biosciences (KiNativ)
Outline: as §1

[4] = test system: T4, GCK; details: 2.5 µM
T4 construct: purchased ActivX Biosciences (KiNativ)
Outline: as §1

[5] = test system: T5, HER2/ErbB2; details: 2.5 µM
T5 construct: purchased ActivX Biosciences (KiNativ)
Outline: as §1

[6] = test system: T6, IKKa; details: 2.5 µM; Lys2; DLKPENIVLQDVGGK
T6 construct: purchased ActivX Biosciences (KiNativ)
Outline: as §1

[7] = test system: JNK1, JNK2, JNK3; details: 2.5 µM; Lys2; DLKPSNIVVK
Outline: as §1

[8] = test system: MARK1, MARK2; details: 2.5 µM; Lys1; EVAVKIIDK
Outline: as §1

[9] = test system: T7, MAST3; details: 2.5 µM; Lys2; DLKPDNLLITSLGHIK
T7 construct: purchased ActivX Biosciences (KiNativ)
Outline: as §1

[10] = test system: T8, MLK1; details: 2.5 µM; Lys2; DLKSSNILILQK
T8 construct: purchased ActivX Biosciences (KiNativ)
Outline: as §1

[11] = test system: T9, NDR2; details: 2.5 µM
T9 construct: purchased ActivX Biosciences (KiNativ)
Outline: as §1

[12] = test system: T10, NuaK1; details: 2.5 µM; Lys1; VVAIKSIR
T10 construct: purchased ActivX Biosciences (KiNativ)
Outline: as §1

[13] = test system: T11, PCTAIRE2; details: 2.5 µM; Lys2; DLKPQNLLINEK
T11 construct: purchased ActivX Biosciences (KiNativ)
Outline: as §1

[14] = test system: T12, PIK3CB; details: 2.5 µM; ATP; VFGEDSVGVIFKNGDDLRQDMLTLQMLR
T12 construct: purchased ActivX Biosciences (KiNativ)
Outline: as §1

[15] = test system: T13, PIP4K2B; details: 2.5 µM; ATP; AKDLPTFKDNDFLNEGQK
T13 construct: purchased ActivX Biosciences (KiNativ)
Outline: as §1

[16] = test system: T14, PKN2; details: 2.5 µM; Lys2; DLKLDNLLLDTEGFVK
T14 construct: purchased ActivX Biosciences (KiNativ)
Outline: as §1

[17] = test system: T15, RSK1 domain2; details: 2.5 µM; Lys2; DLKPSNILYVDESGNPECLR
T15 construct: RSK1 domain2; purchased ActivX Biosciences (KiNativ)
Outline: as §1

[18] = test system: Wnk1, Wnk2; details: 2.5 µM; ATP Loop; GSFKTVYK
Outline: as §1

[19] = test system: T16, ILK; details: 2.5 µM
T16 construct: purchased ActivX Biosciences (KiNativ)

[20] = Activation Loop, LLDIDETEYHADGGKVPIK
[21] = Protein Kinase Domain, ISMADVKFSFQCPGR

**Q.** What does the source list for `C=CC(=O)Nc1cc(Nc2nccc(-c3cn(C)c4ccccc34)n2)c(OC)cc1N(C)CCN(C)C` [Osimertinib, osimertinib, reference compound]?
**A.** Inhibition [1]: -15.7%; Inhibition ([2]; Lys1, NRETHEIVALKR): -40.7%; Inhibition ([2]; Lys2, DLKPQNLLINR): 26.2%; Inhibition ([3]; Lys1, DKNTNQIVAIKK): 34.0%; Inhibition ([3]; Lys2, DLKPNNLLLDENGVLK): 14.2%; Inhibition ([4]; Lys1, DTVTSELAAVKIVK): -23.8%; Inhibition ([4]; Lys2, DIKGANLLLTLQGDVK): 15.4%; Inhibition [5, 20]: 82.4%; Inhibition ([5]; Lys1, GIWIPDGENVKIPVAIKVLR): 89.1%; Inhibition [6]: -19.3%; Inhibition [7]: 13.4%; Inhibition [8]: -15.4%; Inhibition [9]: -21.8%; Inhibition [10]: 34.9%; Inhibition ([11]; Lys1, DTGHIYAMKILR): -19.7%; Inhibition ([11]; Lys2, DIKPDNLLLDAK): -0.656%; Inhibition [12]: 2.8%; Inhibition [13]: 2.6%; Inhibition [14]: -1.4%; Inhibition [15]: -4.2%; Inhibition [16]: 9.8%; Inhibition [17]: -13.9%; Inhibition [18]: -14.8%; Inhibition ([19]; Lys1, WQGNDIVVKVLK): -18.1%; Inhibition [19, 21]: 14.1%

**Q.** For `C=CC(=O)Nc1cc(C(=O)Nc2nc3cccc(C)c3n2[C@@H]2CCCCN(C(=O)C=C)C2)cs1` [ZNL-0056], which Inhibition [1] is on record?
**A.** 17.8%

**Q.** What about the Inhibition ([2]; Lys1, NRETHEIVALKR) of the same compound?
**A.** -65.5%

**Q.** What about the Inhibition ([2]; Lys2, DLKPQNLLINR) of the same compound?
**A.** 18.0%

**Q.** What about the Inhibition ([3]; Lys1, DKNTNQIVAIKK) of the same compound?
**A.** -17.3%

**Q.** What about the Inhibition ([3]; Lys2, DLKPNNLLLDENGVLK) of the same compound?
**A.** -3.1%

**Q.** What about the Inhibition ([4]; Lys1, DTVTSELAAVKIVK) of the same compound?
**A.** -6.8%

**Q.** And the Inhibition ([4]; Lys2, DIKGANLLLTLQGDVK)?
**A.** 0.9%

**Q.** And the Inhibition [5, 20]?
**A.** 65.9%

**Q.** What about the Inhibition ([5]; Lys1, GIWIPDGENVKIPVAIKVLR) of the same compound?
**A.** 60.7%

**Q.** And the Inhibition [6]?
**A.** 5.3%

**Q.** What about the Inhibition [7] of the same compound?
**A.** -5.1%

**Q.** And the Inhibition [8]?
**A.** 11.4%

**Q.** And the Inhibition [9]?
**A.** 3.9%

**Q.** What about the Inhibition [10] of the same compound?
**A.** -4.3%

**Q.** And the Inhibition ([11]; Lys1, DTGHIYAMKILR)?
**A.** 11.0%

**Q.** And the Inhibition ([11]; Lys2, DIKPDNLLLDAK)?
**A.** 3.3%

**Q.** What about the Inhibition [12] of the same compound?
**A.** 17.0%

**Q.** And the Inhibition [13]?
**A.** -15.1%

**Q.** And the Inhibition [14]?
**A.** -22.3%

**Q.** And the Inhibition [15]?
**A.** 16.6%

**Q.** What about the Inhibition [16] of the same compound?
**A.** 22.0%

**Q.** What about the Inhibition [17] of the same compound?
**A.** 11.8%

**Q.** What about the Inhibition [18] of the same compound?
**A.** -0.1%

**Q.** And the Inhibition ([19]; Lys1, WQGNDIVVKVLK)?
**A.** -6.7%

**Q.** What about the Inhibition [19, 21] of the same compound?
**A.** -9.2%
